Source: ChEMBL document CHEMBL1201862, “PubChem BioAssay data set” (2004)
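A five-concentration, 48-hour dose response in 96-well plates underlies each endpoint, interpolated linearly between surrounding concentrations. Abbreviation: GI50, concentration required for 50% inhibition of growth.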 The source made the active and inactive calls. Rule as the data show it: active = GI50 up to about 1.1 µM and inactive = higher.

Tests used:
Test in all cases: NCI-60 cell line screen, 48 h
M14 = tested on: M14
PC-3 = tested on: PC-3
A549 = tested on: A549
K562 = tested on: K562
NCI-H460 = tested on: NCI-H460
DU-145 = tested on: DU-145
OVCAR-8 = tested on: OVCAR-8
HCC 2998 = tested on: HCC 2998
COLO 205 = tested on: COLO 205
OVCAR-4 = tested on: OVCAR-4
SN12C = tested on: SN12C
SW-620 = tested on: SW-620
U-251 = tested on: U-251
SF-539 = tested on: SF-539
KM12 = tested on: KM12
HT-29 = tested on: HT-29
HOP-92 = tested on: HOP-92
MCF7 = tested on: MCF7
T47D = tested on: T47D
SK-MEL-2 = tested on: SK-MEL-2
HOP-62 = tested on: HOP-62
SNB-19 = tested on: SNB-19
MDA-MB-435 = tested on: MDA-MB-435
IGROV-1 = tested on: IGROV-1
Hs-578T = tested on: Hs-578T
RXF 393 = tested on: RXF 393
SR = tested on: SR
SF-295 = tested on: SF-295
HCT-116 = tested on: HCT-116
MDA-N = tested on: MDA-N
A498 = tested on: A498
EKVX = tested on: EKVX
ACHN = tested on: ACHN
NCI-H23 = tested on: NCI-H23
NCI-H226 = tested on: NCI-H226
MDA-MB-231 = tested on: MDA-MB-231
CAKI-1 = tested on: CAKI-1
UO-31 = tested on: UO-31
TK-10 = tested on: TK-10
HCT-15 = tested on: HCT-15
SF-268 = tested on: SF-268
SK-OV-3 = tested on: SK-OV-3
786-0 = tested on: 786-0
MOLT-4 = tested on: MOLT-4
OVCAR-5 = tested on: OVCAR-5
UACC-257 = tested on: UACC-257
NCI/ADR-RES = tested on: NCI/ADR-RES
SNB-75 = tested on: SNB-75
LOX IMVI = tested on: LOX IMVI
CCRF-CEM = tested on: CCRF-CEM
OVCAR-3 = tested on: OVCAR-3
SK-MEL-28 = tested on: SK-MEL-28
UACC-62 = tested on: UACC-62
RPMI-8226 = tested on: RPMI-8226
HL-60 = tested on: HL-60
BT-549 = tested on: BT-549
Malme-3M = tested on: Malme-3M
NCI-H522 = tested on: NCI-H522
SK-MEL-5 = tested on: SK-MEL-5

Question: Which results are given for `Cc1cn(CCCCCCOC(=O)NC(CCCNC(=N)N)C(=O)O)c(=O)[nH]c1=O` (configuration not stated)?
Answer: GI50 (M14): > 100 µM (inactive); GI50 (PC-3): > 100 µM (inactive); GI50 (A549): > 100 µM (inactive); GI50 (K562): > 100 µM (inactive); GI50 (NCI-H460): > 100 µM (inactive); GI50 (DU-145): > 100 µM (inactive); GI50 (OVCAR-8): > 100 µM (inactive); GI50 (HCC 2998): > 100 µM (inactive); GI50 (COLO 205): > 100 µM (inactive); GI50 (OVCAR-4): > 100 µM (inactive); GI50 (SN12C): > 100 µM (inactive); GI50 (SW-620): > 100 µM (inactive); GI50 (U-251): > 100 µM (inactive); GI50 (SF-539): > 100 µM (inactive); GI50 (KM12): > 100 µM (inactive); GI50 (HT-29): > 100 µM (inactive); GI50 (HOP-92): > 100 µM (inactive); GI50 (MCF7): > 100 µM (inactive); GI50 (T47D): > 100 µM (inactive); GI50 (SK-MEL-2): > 100 µM (inactive); GI50 (HOP-62): > 100 µM (inactive); GI50 (SNB-19): > 100 µM (inactive); GI50 (MDA-MB-435): > 100 µM (inactive); GI50 (IGROV-1): > 100 µM (inactive); GI50 (Hs-578T): > 100 µM (inactive); GI50 (RXF 393): > 100 µM (inactive); GI50 (SR): > 100 µM (inactive); GI50 (SF-295): > 100 µM (inactive); GI50 (HCT-116): > 100 µM (inactive); GI50 (MDA-N): > 100 µM (inactive); GI50 (A498): > 100 µM (inactive); GI50 (EKVX): > 100 µM (inactive); GI50 (ACHN): > 100 µM (inactive); GI50 (NCI-H23): > 100 µM (inactive); GI50 (NCI-H226): > 100 µM (inactive); GI50 (MDA-MB-231): > 100 µM (inactive); GI50 (CAKI-1): > 100 µM (inactive); GI50 (UO-31): > 100 µM (inactive); GI50 (TK-10): > 100 µM (inactive); GI50 (HCT-15): > 100 µM; GI50 (SF-268): > 100 µM (inactive); GI50 (SK-OV-3): > 100 µM (inactive); GI50 (786-0): > 100 µM (inactive); GI50 (MOLT-4): > 100 µM (inactive); GI50 (OVCAR-5): > 100 µM (inactive); GI50 (UACC-257): > 100 µM (inactive); GI50 (NCI/ADR-RES): > 100 µM (inactive); GI50 (SNB-75): > 100 µM (inactive); GI50 (LOX IMVI): > 100 µM (inactive); GI50 (CCRF-CEM): > 100 µM (inactive); GI50 (OVCAR-3): > 100 µM (inactive); GI50 (SK-MEL-28): > 100 µM (inactive); GI50 (UACC-62): > 100 µM (inactive); GI50 (RPMI-8226): > 100 µM (inactive); GI50 (HL-60): > 100 µM (inactive); GI50 (BT-549): > 100 µM (inactive)

Question: Which GI50 (M14) does the source give for `CN(C)CCNC(=O)c1ccc(NC(=O)c2nc([N+](=O)[O-])cn2C)cc1` here?
Answer: > 100 µM (inactive)

Question: And the GI50 (PC-3)?
Answer: > 100 µM (inactive)

Question: And the GI50 (A549)?
Answer: > 100 µM (inactive)

Question: And the GI50 (K562)?
Answer: > 100 µM (inactive)

Question: What about the GI50 (NCI-H460) of the same compound?
Answer: > 100 µM (inactive)

Question: What about the GI50 (DU-145) of the same compound?
Answer: > 100 µM (inactive)

Question: What about the GI50 (OVCAR-8) of the same compound?
Answer: > 100 µM (inactive)

Question: And the GI50 (COLO 205)?
Answer: > 100 µM (inactive)

Question: And the GI50 (OVCAR-4)?
Answer: > 100 µM (inactive)

Question: And the GI50 (SN12C)?
Answer: > 100 µM (inactive)

Question: And the GI50 (SW-620)?
Answer: > 100 µM (inactive)

Question: And the GI50 (U-251)?
Answer: > 100 µM (inactive)

Question: What about the GI50 (Malme-3M) of the same compound?
Answer: > 100 µM (inactive)

Question: And the GI50 (SF-539)?
Answer: > 100 µM (inactive)

Question: And the GI50 (KM12)?
Answer: > 100 µM (inactive)

Question: What about the GI50 (HT-29) of the same compound?
Answer: > 100 µM (inactive)

Question: What about the GI50 (HOP-92) of the same compound?
Answer: > 100 µM (inactive)

Question: And the GI50 (MCF7)?
Answer: > 100 µM (inactive)

Question: And the GI50 (T47D)?
Answer: > 100 µM (inactive)

Question: And the GI50 (SK-MEL-2)?
Answer: > 100 µM (inactive)

Question: What about the GI50 (HOP-62) of the same compound?
Answer: > 100 µM (inactive)

Question: What about the GI50 (MDA-MB-435) of the same compound?
Answer: > 100 µM (inactive)

Question: What about the GI50 (IGROV-1) of the same compound?
Answer: > 100 µM (inactive)

Question: What about the GI50 (NCI-H522) of the same compound?
Answer: > 100 µM (inactive)

Question: What about the GI50 (Hs-578T) of the same compound?
Answer: > 100 µM (inactive)

Question: And the GI50 (RXF 393)?
Answer: > 100 µM (inactive)

Question: And the GI50 (SR)?
Answer: > 100 µM (inactive)

Question: What about the GI50 (SF-295) of the same compound?
Answer: > 100 µM (inactive)

Question: And the GI50 (HCT-116)?
Answer: > 100 µM (inactive)

Question: And the GI50 (MDA-N)?
Answer: > 100 µM (inactive)

Question: And the GI50 (A498)?
Answer: > 100 µM (inactive)

Question: What about the GI50 (ACHN) of the same compound?
Answer: > 100 µM (inactive)

Question: And the GI50 (NCI-H23)?
Answer: > 100 µM (inactive)

Question: And the GI50 (NCI-H226)?
Answer: > 100 µM (inactive)

Question: What about the GI50 (SK-MEL-5) of the same compound?
Answer: > 100 µM (inactive)

Question: And the GI50 (MDA-MB-231)?
Answer: > 100 µM (inactive)

Question: What about the GI50 (CAKI-1) of the same compound?
Answer: > 100 µM (inactive)

Question: What about the GI50 (UO-31) of the same compound?
Answer: > 100 µM (inactive)

Question: And the GI50 (TK-10)?
Answer: > 100 µM (inactive)

Question: And the GI50 (HCT-15)?
Answer: > 100 µM

Question: What about the GI50 (SF-268) of the same compound?
Answer: > 100 µM (inactive)

Question: What about the GI50 (SK-OV-3) of the same compound?
Answer: > 100 µM (inactive)

Question: What about the GI50 (786-0) of the same compound?
Answer: > 100 µM (inactive)

Question: And the GI50 (MOLT-4)?
Answer: > 100 µM (inactive)

Question: And the GI50 (OVCAR-5)?
Answer: > 100 µM (inactive)

Question: What about the GI50 (UACC-257) of the same compound?
Answer: > 100 µM (inactive)

Question: And the GI50 (NCI/ADR-RES)?
Answer: > 100 µM (inactive)

Question: What about the GI50 (SNB-75) of the same compound?
Answer: > 100 µM (inactive)

Question: And the GI50 (LOX IMVI)?
Answer: > 100 µM (inactive)

Question: And the GI50 (CCRF-CEM)?
Answer: > 100 µM (inactive)

Question: What about the GI50 (OVCAR-3) of the same compound?
Answer: > 100 µM (inactive)

Question: And the GI50 (SK-MEL-28)?
Answer: > 100 µM (inactive)

Question: And the GI50 (UACC-62)?
Answer: > 100 µM (inactive)

Question: And the GI50 (RPMI-8226)?
Answer: > 100 µM (inactive)

Question: What about the GI50 (HL-60) of the same compound?
Answer: > 100 µM (inactive)

Question: What about the GI50 (BT-549) of the same compound?
Answer: > 100 µM (inactive)
